Experimental data from US10039740B2, “Therapeutic combinations of sesquiterpenes and flavonoids” (Primus Pharmaceuticals, Inc., priority 2015, dated 2018).

Key:
RAW267.4 cells [1] = assay: Cell proliferation of RAW267.4 cells (cell counting); type: cell-based, mouse; conditions: cultured 3 days; for proliferation of RAW267.4 cells: p<0.001 vs control; for effect on RAW267.4 cells (proliferation): 1, 10, 50, 100, and 200 μg/ml, FIG. 4, FIG. 5
Method: Various experiments were conducted to determine effects of various active ingredients on RAW 267.4 in vitro. RAW267.4 cells refer to a mouse macrophage that produces various inflammatory cytokines including TNF-α and IL-1β. RAW267.4 cells may be prepared as 1×10^5/ml per well. These cells were cultured using a 24-well plate in DMEM containing 10% FBS and 1% P/S for 1, 2, 3 or 7 days in a water-saturated atmosphere containing 5% CO2 and 95% air at 37° C. RAW267.4 cells were cultured DMEM containing 10% FBS and 1% P/S in the presence of β-caryophyllene [1 (5 μM), 10, 50, 100 or 200 μg/ml of medium], baicalin [1 (2.24 μM), 10, 50, 100 or 200 μg/ml of medium], (+)-catechin [1 (3.45 μM), 10, 50, 100 or 200 μg/ml of medium], curcumin [1 (2.72 μM), 10, 50, 100 or 200 μg/ml of medium], or (+)-aromatic turmerone [1 (4.62 μM), 5, 10, 25 or 50 μg/ml of medium] for 3 days. After culture, cells were detached from each culture dish and counted. After trypsinization of each culture dish using 0.2% […] plus 0.02% EDTA in Ca^2+/Mg^2+-free PBS for 2 min at 37° C., detached cells from the dish were collected after centrifugation. Cells were resuspended in PBS solution and stained with eosin. Cell numbers were counted under a microscope using a Hemocytometer plate. Each dish was counted twice, and an average of two counts was calculated. Cell number was shown as number per well of plate. Statistical significance was determined using GraphPad InStat version 3 for Windows XP (GraphPad Software Inc. La Jolla, Calif.). Multiple comparisons were performed by one-way analysis of variance (ANOVA) with Tukey-Kramer multiple comparisons post test for parametric data as indicated. P<0.05 was considered statistically significant. The cells were cultured for 3 days in the presence of one or more various compounds to determine their anti-inflammatory effects.

RAW267.4 cells [2] = assay: Cell death of RAW267.4 cells (cell number after confluence); type: cell-based, mouse; conditions: for death of RAW267.4 cells in vitro: conclusion from the cell death experiments
Method: RAW267.4 cells (1×10^5/ml per well) were cultured using a 24-well plate in DMEM containing 10% FBS and 1% P/S for 3 days until reaching confluence, and then the cells were cultured another for 2 days in the presence or absence of β-caryophyllene (1 or 10 μg/ml of medium) and/or baicalin or (+)-catechin (1 or 10 μg/ml of medium). After culture, cells were detached from each culture dish. After trypsinization of each culture dish using 0.2% […] plus 0.02% EDTA in Ca^2+/Mg^2+-free PBS for 2 min at 37° C., detached cells from the dish were collected after centrifugation. Cells were resuspended in PBS solution and stained with eosin. Cell numbers were counted under a microscope using a Hemocytometer plate. Each dish was counted twice, and an average of two counts was calculated. Cell number was shown as number per well of plate. Statistical significance was determined using GraphPad InStat version 3 for Windows XP (GraphPad Software Inc. La Jolla, Calif.). Multiple comparisons were performed by one-way analysis of variance (ANOVA) with Tukey-Kramer multiple comparisons post test for parametric data as indicated. P<0.05 was considered statistically significant.

CC(C)=CC(=O)C[C@H](C)c1ccc(C)cc1 [(+)-aromatic turmerone, reference compound]
proliferation of RAW267.4 cells (RAW267.4 cells [1]; 25 and 50 μg/ml, FIG. 3): significantly increased

O=C(O)[C@H]1O[C@@H](Oc2cc3oc(-c4ccccc4)cc(=O)c3c(O)c2O)[C@H](O)[C@@H](O)[C@@H]1O [baicalin]
death of RAW267.4 cells in vitro (RAW267.4 cells [2]): do not have significant effects
effect on RAW267.4 cells (proliferation) (RAW267.4 cells [1]): did not result in a significant effect

C=C1CC/C=C(\C)CC[C@@H]2[C@@H]1CC2(C)C [β-caryophyllene]
number of RAW267.4 cells (cell death) (RAW267.4 cells [2]; 3 days without chemicals, then 2 days with compound(s) at about 1 or 10 μg/ml of medium, FIG. 13): did not induce a significant decrease
death of RAW267.4 cells in vitro (RAW267.4 cells [2]): do not have significant effects
suppressive effect on cell proliferation (RAW267.4 cells [1]; 1 or 10 μg/ml of each compound, FIG. 6, 7, 8, 10): did not result any significant suppressive effect
proliferation of RAW267.4 cells (RAW267.4 cells [1]; 50, 100, and 200 μg/ml of medium, FIG. 1): suppressed

Oc1cc(O)c2c(c1)O[C@H](c1ccc(O)c(O)c1)[C@@H](O)C2 [(+)-catechin]
death of RAW267.4 cells in vitro (RAW267.4 cells [2]): do not have significant effects
effect on RAW267.4 cells (proliferation) (RAW267.4 cells [1]): did not result in a significant effect

COc1cc(/C=C/C(=O)CC(=O)/C=C/c2ccc(O)c(OC)c2)ccc1O [curcumin, reference compound]
proliferation of RAW267.4 cells (RAW267.4 cells [1]; 100 and 200 μg/ml, FIG. 2): suppressed
